According to PubChem BioAssay AID1919001 (Molecular Pharmacology Branch, DTP, NCI, 2023):
“And” between values parts separate entries of the source, which are not always exact repeats. Equal values may be shown once. Values belong to the molecule of their own block, whether it stands above or below them.

Tested on: 699152-130-R-J1-PDC complex spheroid growth
Assay: Anticancer human tumor 699152-130-R-J1-PDC patient-derived pancreatic carcinoma cell line growth inhibition [AhR]
Details: for viability, T/C: stronger effect = lower value
Outline: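 Spheroids combined tumor cells with HUVEC endothelial cells and human MSCs as stroma. AhR antagonists were paired with standard or investigational drugs, each dosed in half-log steps down from near clinical Cmax, or from 10 microM where Cmax was unknown.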

[1] = curve of first compound, second compound 0.1 µM
[2] = curve of first compound, second compound 0.316 µM
[3] = curve of first compound, second compound 1 µM
[4] = curve of first compound, second compound 3.16 µM
[5] = curve of first compound, second compound 10 µM
[6] = second compound 0.1 µM, first compound 0.0316 µM
[7] = second compound 0.1 µM, first compound 0.1 µM
[8] = second compound 0.1 µM, first compound 0.316 µM
[9] = second compound 0.1 µM, first compound 1 µM
[10] = second compound 0.1 µM, first compound 3.16 µM
[11] = second compound 0.1 µM, first compound 10 µM
[12] = second compound 0.316 µM, first compound 0.0316 µM
[13] = second compound 0.316 µM, first compound 0.1 µM
[14] = second compound 0.316 µM, first compound 0.316 µM
[15] = second compound 0.316 µM, first compound 1 µM
[16] = second compound 0.316 µM, first compound 3.16 µM
[17] = second compound 0.316 µM, first compound 10 µM
[18] = second compound 1 µM, first compound 0.0316 µM
[19] = second compound 1 µM, first compound 0.1 µM
[20] = second compound 1 µM, first compound 0.316 µM
[21] = second compound 1 µM, first compound 1 µM
[22] = second compound 1 µM, first compound 3.16 µM
[23] = second compound 1 µM, first compound 10 µM
[24] = second compound 3.16 µM, first compound 0.0316 µM
[25] = second compound 3.16 µM, first compound 0.1 µM
[26] = second compound 3.16 µM, first compound 0.316 µM
[27] = second compound 3.16 µM, first compound 1 µM
[28] = second compound 3.16 µM, first compound 3.16 µM
[29] = second compound 3.16 µM, first compound 10 µM
[30] = second compound 10 µM, first compound 0.0316 µM
[31] = second compound 10 µM, first compound 0.1 µM
[32] = second compound 10 µM, first compound 0.316 µM
[33] = second compound 10 µM, first compound 1 µM
[34] = second compound 10 µM, first compound 3.16 µM
[35] = second compound 10 µM, first compound 10 µM
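Note: compound exposure lasted 7 days after spheroids had grown for 3 days.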

- IC50 [1]: > 10 µM
- IC50 [2]: 4.1 µM
- IC50 [3]: > 10 µM
- IC50 [4]: 7.2 µM
- IC50 [5]: > 10 µM
SMILES: COc1cc(C2c3cc4c(cc3C(OC3OC5COC(C)OC5C(O)C3O)C3COC(=O)C23)OCO4)cc(OC)c1O (stereo not drawn) + Cc1ccccc1N=Nc1ccc(NC(=O)c2ccnn2C)c(C)c1
- viability, T/C [6]: 96.8%
- viability, T/C [7]: 117%
- viability, T/C [8]: 74.5%
- viability, T/C [9]: 62.5%
- viability, T/C [10]: 48.2%
- viability, T/C [11]: 48.2%
- viability, T/C [12]: 95.9%
- viability, T/C [13]: 88.8%
- viability, T/C [14]: 66.2%
- viability, T/C [15]: 62.1%
- viability, T/C [16]: 53.6%
- viability, T/C [17]: 43.4%
- viability, T/C [18]: 104%
- viability, T/C [19]: 106%
- viability, T/C [20]: 81%
- viability, T/C [21]: 62.1%
- viability, T/C [22]: 60.6%
- viability, T/C [23]: 50.5%
- viability, T/C [24]: 108%
- viability, T/C [25]: 89.4%
- viability, T/C [26]: 65.4%
- viability, T/C [27]: 62.5%
- viability, T/C [28]: 54.4%
- viability, T/C [29]: 47.3%
- viability, T/C [30]: 106%
- viability, T/C [31]: 88.7%
- viability, T/C [32]: 55%
- viability, T/C [33]: 65.1%
- viability, T/C [34]: 65.1%
- viability, T/C [35]: 57.1%

- IC50 (curve of compound): 0.0169 µM and 0.0145 µM and 0.0067 µM
SMILES: CC(C)CC(NC(=O)C(Cc1ccccc1)NC(=O)c1cnccn1)B(O)O (stereo not drawn)
- viability, T/C (compound 0.000949 µM): 107% and 97.5% and 95.3%
- viability, T/C (compound 0.003 µM): 107% and 101% and 94.5%
- viability, T/C (compound 0.00949 µM): 99.3% and 79% and 30.8%
- viability, T/C (compound 0.03 µM): 1.12% and 0.95% and 0.7%
- viability, T/C (compound 0.0949 µM): 0.51% and 0.48% and 0.69%
- viability, T/C (compound 0.3 µM): 0.46% and 0.87% and 0.49%

- IC50 (curve of compound): > 10 µM
SMILES: CC1(C)CCC(CN2CCN(c3ccc(C(=O)NS(=O)(=O)c4ccc(NCC5CCOCC5)c([N+](=O)[O-])c4)c(Oc4cnc5[nH]ccc5c4)c3)CC2)=C(c2ccc(Cl)cc2)C1
- viability, T/C (compound 0.0316 µM): 99.2% and 99% and 94.1%
- viability, T/C (compound 0.1 µM): 122% and 97.6% and 103%
- viability, T/C (compound 0.316 µM): 110% and 102% (2×)
- viability, T/C (compound 1 µM): 100% and 106% and 101%
- viability, T/C (compound 3.16 µM): 106% and 89.5% and 115%
- viability, T/C (compound 10 µM): 94% and 64.3% and 58.6%

- IC50 [1]: 1.24 µM
- IC50 [2]: 1.3 µM
- IC50 [3]: 2.51 µM
- IC50 [4]: 0.864 µM
- IC50 [5]: < 0.0316 µM
SMILES: Nc1ccn(C2OC(CO)C(O)C2(F)F)c(=O)n1 (stereo not drawn) + Cc1cncc(-c2nc(NCCc3c[nH]c4ccccc34)c3ncn(C(C)C)c3n2)c1
- viability, T/C [6]: 76.3%
- viability, T/C [7]: 69.2%
- viability, T/C [8]: 62.3%
- viability, T/C [9]: 49.4%
- viability, T/C [10]: 46.6%
- viability, T/C [11]: 42.8%
- viability, T/C [12]: 81.3%
- viability, T/C [13]: 63.6%
- viability, T/C [14]: 56.8%
- viability, T/C [15]: 56.1%
- viability, T/C [16]: 45.3%
- viability, T/C [17]: 40.6%
- viability, T/C [18]: 72.6%
- viability, T/C [19]: 67.9%
- viability, T/C [20]: 58.6%
- viability, T/C [21]: 53.8%
- viability, T/C [22]: 50.5%
- viability, T/C [23]: 43.8%
- viability, T/C [24]: 74.7%
- viability, T/C [25]: 71.1%
- viability, T/C [26]: 55.6%
- viability, T/C [27]: 50.8%
- viability, T/C [28]: 45.4%
- viability, T/C [29]: 49.8%
- viability, T/C [30]: 47.8%
- viability, T/C [31]: 50.9%
- viability, T/C [32]: 40.5%
- viability, T/C [33]: 46%
- viability, T/C [34]: 39.4%
- viability, T/C [35]: 35.5%

- IC50 (curve of compound): > 10 µM
SMILES: CC(C)c1c(-c2ccccc2)nc2c(C#N)c[nH]n2c1=O
- viability, T/C (compound 0.0316 µM): 108% and 92.1% and 105%
- viability, T/C (compound 0.1 µM): 102% (2×) and 87.1%
- viability, T/C (compound 0.316 µM): 109% and 90% and 107%
- viability, T/C (compound 1 µM): 97.5% and 90.3% and 96%
- viability, T/C (compound 3.16 µM): 112% and 104% and 99.7%
- viability, T/C (compound 10 µM): 107% and 88.4% and 99.3%

- IC50 [1]: 6.29 µM
- IC50 [2]: 5.2 µM
- IC50 [3]: 7.45 µM
- IC50 [4]: 4.64 µM
- IC50 [5]: < 0.0316 µM
SMILES: COc1ccc([C@@H](O)c2cc(-c3ncnc4cc(N5CCOCC5)ccc34)c(F)cc2Cl)nn1 + Cc1cncc(-c2nc(NCCc3c[nH]c4ccccc34)c3ncn(C(C)C)c3n2)c1
- viability, T/C [6]: 100%
- viability, T/C [7]: 104%
- viability, T/C [8]: 89.4%
- viability, T/C [9]: 78.9%
- viability, T/C [10]: 65.4%
- viability, T/C [11]: 40.1%
- viability, T/C [12]: 95%
- viability, T/C [13]: 102%
- viability, T/C [14]: 89.2%
- viability, T/C [15]: 84.4%
- viability, T/C [16]: 59.7%
- viability, T/C [17]: 36.8%
- viability, T/C [18]: 104%
- viability, T/C [19]: 103%
- viability, T/C [20]: 109%
- viability, T/C [21]: 91%
- viability, T/C [22]: 76.2%
- viability, T/C [23]: 41.2%
- viability, T/C [24]: 55.6%
- viability, T/C [25]: 66%
- viability, T/C [26]: 60.6%
- viability, T/C [27]: 59.8%
- viability, T/C [28]: 54.3%
- viability, T/C [29]: 40.2%
- viability, T/C [30]: 4.98%
- viability, T/C [31]: 5.41%
- viability, T/C [32]: 4.5%
- viability, T/C [33]: 6.28%
- viability, T/C [34]: 6.8%
- viability, T/C [35]: 9.11%

- IC50 (curve of compound): > 10 µM
SMILES: COc1cc(Nc2ncc3c(n2)-c2ccc(Cl)cc2C(c2c(F)cccc2OC)=NC3)ccc1C(=O)O
- viability, T/C (compound 0.0316 µM): 97.6% and 87.1% and 94%
- viability, T/C (compound 0.1 µM): 71.4% and 74.1% and 85.8%
- viability, T/C (compound 0.316 µM): 80.8% and 74.1% and 72%
- viability, T/C (compound 1 µM): 60.1% and 59.5% and 65.4%
- viability, T/C (compound 3.16 µM): 58.4% and 63% and 64.4%
- viability, T/C (compound 10 µM): 55.9% and 54.8% and 60.7%

- IC50 [1]: > 3 µM
- IC50 [2]: > 3 µM
- IC50 [3]: > 3 µM
- IC50 [4]: > 3 µM
- IC50 [5]: > 3 µM
SMILES: O=C(C=Cn1cnc(-c2cc(C(F)(F)F)cc(C(F)(F)F)c2)n1)NNc1cnccn1 + CC(CO)NC(=O)c1cc(-c2ccc(Cl)cc2)nn(-c2cnn(C)c2)c1=O
- viability, T/C (second compound 0.1 µM, first compound 0.00949 µM): 87.8%
- viability, T/C (second compound 0.1 µM, first compound 0.03 µM): 98.4%
- viability, T/C (second compound 0.1 µM, first compound 0.0949 µM): 82.1%
- viability, T/C (second compound 0.1 µM, first compound 0.3 µM): 74.3%
- viability, T/C (second compound 0.1 µM, first compound 0.949 µM): 82.5%
- viability, T/C (second compound 0.1 µM, first compound 3 µM): 83.2%
- viability, T/C (second compound 0.316 µM, first compound 0.00949 µM): 90.2%
- viability, T/C (second compound 0.316 µM, first compound 0.03 µM): 82.5%
- viability, T/C (second compound 0.316 µM, first compound 0.0949 µM): 76.7%
- viability, T/C (second compound 0.316 µM, first compound 0.3 µM): 87.3%
- viability, T/C (second compound 0.316 µM, first compound 0.949 µM): 87.5%
- viability, T/C (second compound 0.316 µM, first compound 3 µM): 70.5%
- viability, T/C (second compound 1 µM, first compound 0.00949 µM): 88.8%
- viability, T/C (second compound 1 µM, first compound 0.03 µM): 83.9%
- viability, T/C (second compound 1 µM, first compound 0.0949 µM): 75.5%
- viability, T/C (second compound 1 µM, first compound 0.3 µM): 74%
- viability, T/C (second compound 1 µM, first compound 0.949 µM): 82.6%
- viability, T/C (second compound 1 µM, first compound 3 µM): 79%
- viability, T/C (second compound 3.16 µM, first compound 0.00949 µM): 92.1%
- viability, T/C (second compound 3.16 µM, first compound 0.03 µM): 88%
- viability, T/C (second compound 3.16 µM, first compound 0.0949 µM): 87%
- viability, T/C (second compound 3.16 µM, first compound 0.3 µM): 71.8%
- viability, T/C (second compound 3.16 µM, first compound 0.949 µM): 71.2%
- viability, T/C (second compound 3.16 µM, first compound 3 µM): 75.4%
- viability, T/C (second compound 10 µM, first compound 0.00949 µM): 99%
- viability, T/C (second compound 10 µM, first compound 0.03 µM): 82.1%
- viability, T/C (second compound 10 µM, first compound 0.0949 µM): 68.7%
- viability, T/C (second compound 10 µM, first compound 0.3 µM): 72.4%
- viability, T/C (second compound 10 µM, first compound 0.949 µM): 82.3%
- viability, T/C (second compound 10 µM, first compound 3 µM): 73.4%
